Reference: PMC8209957 (Cell, 2021)

Target: MEK1-C222 (Homo sapiens, UniProt Q02750, S222C/C277S/C376S)
Assay: differential scanning fluorimetry
Format: binding
Details: thermal shift with and without Mg2+; values only in figure

For `Nc1ncnc2c1ncn2[C@@H]1O[C@H](COP(=O)(O)OP(=O)(O)OP(O)(O)=S)[C@@H](O)[C@H]1O` [ATPγS], which differential scanning fluorimetry is on record?
The differential scanning fluorimetry was “to form MEK1•ATP(±Mg) and MEK1•ATPγS(±Mg)”.
